PMC9920077, “Antimicrobial Natural Products from Plant Pathogenic Fungi” (Molecules, 2023)
Values after ≈ are worked out from the molar mass of the structure shown. Like-named read-outs stand apart in the source and are kept apart here.

Key:
[1] = tested on: HEK293 human embryonic kidney cells
Experimental: (§2) All compounds were also evaluated for their cytotoxicity against human embryonic kidney cells (HEK-293) and any haemolytic activity against human red blood cells.

A. baumannii ATCC 19606 = experiment: MIC against A. baumannii ATCC 19606, CO-ADD; format: cell-based; settings: Acinetobacter baumannii
From the text: (§1) Antimicrobial evaluation of the pure compounds against A. baumannii ATCC 19606, Candida albicans ATCC 90028, Cryptococcus neoformans ATCC 208821, E. coli ATCC 25922, K. pneumoniae ATCC 700603, P. aeruginosa ATCC 27853, and S. aureus ATCC 43300 (MRSA) was undertaken at the Community for Open Antimicrobial Drug Discovery at The University of Queensland (St. Lucia, Queensland, Australia) according to standard protocols as previously described.

P. aeruginosa ATCC 27853 = experiment: MIC against P. aeruginosa ATCC 27853, CO-ADD; format: cell-based; settings: Pseudomonas aeruginosa
From the text: as §1

C. albicans ATCC 90028 = experiment: MIC against C. albicans ATCC 90028, CO-ADD; format: cell-based, Candida albicans; settings: for MIC: Candida albicans
From the text: as §1

[2] = tested on: C. neoformans ATCC 208821; experiment: MIC against C. neoformans ATCC 208821, CO-ADD; format: cell-based; settings: Cryptococcus neoformans
From the text: as §1

[3] = tested on: K. pneumoniae ATCC 700603; experiment: MIC against K. pneumoniae ATCC 700603, CO-ADD; format: cell-based; settings: Klebsiella pneumoniae
From the text: as §1

E. coli ATCC 25922 = experiment: MIC against E. coli ATCC 25922, CO-ADD; format: cell-based; settings: Escherichia coli
From the text: as §1

[4] = tested on: S. aureus ATCC 43300 (MRSA); experiment: MIC against S. aureus ATCC 43300 (MRSA), CO-ADD; format: cell-based, Staphylococcus aureus; settings: for MIC: Staphylococcus aureus, read-out: MIC S. a
From the text: as §1

Elymus repens = tested on: Elymus repens; set-up: method as in PMID 25312126; settings: cited from earlier work
Mycotypha microspora = tested on: Mycotypha microspora; set-up: method as in PMID 25312126; settings: cited from earlier work
Microbotryum violaceum = tested on: Microbotryum violaceum; set-up: method as in doi:10.1002/ejoc.200800404; settings: agar diffusion assay; cited from earlier work
Bacillus megaterium = tested on: Bacillus megaterium; set-up: method as in doi:10.1002/ejoc.200800404; settings: agar diffusion assay; cited from earlier work
E. coli [5] = tested on: E. coli; set-up: method as in doi:10.1002/ejoc.200800404; settings: agar diffusion assay; cited from earlier work
Sclerotinia sclerotiorum = tested on: Sclerotinia sclerotiorum; set-up: method as in PMID 19333565, doi:10.1590/S0100-40422007000700012; settings: cited from earlier work
E. coli [6] = tested on: E. coli; set-up: method as in PMID 4629229; settings: disk diffusion assays; cited from earlier work
S. cerevisiae = tested on: S. cerevisiae; set-up: method as in PMID 19333565, doi:10.1590/S0100-40422007000700012; settings: cited from earlier work
S. aureus = tested on: S. aureus; set-up: method as in PMID 19333565, doi:10.1590/S0100-40422007000700012; settings: cited from earlier work
[7] = tested on: Mycobacteria tuberculosis; set-up: method as in PMID 19333565, doi:10.1590/S0100-40422007000700012; settings: cited from earlier work
B. subtilis = tested on: B. subtilis; set-up: method as in PMID 19333565, doi:10.1590/S0100-40422007000700012; settings: cited from earlier work
human red blood cells [8] = experiment: Haemolytic activity on human red blood cells; settings: concentration of compound at 10% haemolytic activity on human red blood cells; mean of two experiments
M. marinum BSG101 = experiment: Antimycobacterial bioluminescence assay of pure compounds, M. marinum; settings: Mycobacterium marinum, BSG101, 72 h
Experimental: Antimicrobial evaluation against M. abscessus and M. marinum was undertaken using in-house assays with the bioluminescent derivatives M. abscessus BSG301 [63] and M. marinum BSG101 [64]. […] Specifically, mycobacterial cultures were grown with shaking at 200 rpm in Middlebrook 7H9 broth (Fort Richard, Auckland, New Zealand) supplemented with 10% Middlebrook ADC enrichment media (Fort Richard, Auckland, New Zealand), 0.4% glycerol (Sigma-Aldrich, St. Louis, MO, USA), and 0.05% tyloxapol (Sigma-Aldrich, St. Louis, MO, USA). M. abscessus was grown at 37 °C and M. marinum at 28 °C. Cultures were grown until they reached the stationary phase (approximately 3–5 days for M. abscessus BSG301 and 7–10 days for M. marinum BSG101) and then diluted in MHB supplemented with 10% Middlebrook ADC enrichment media and 0.05% tyloxapol to give an optical density at 600 nm (OD600) of 0.001, which is the equivalent of ~10^6 bacteria per mL. Pure compounds were dissolved in DMSO and added to the wells of a black 96-well plate (Nunc, Thermo Scientific, Waltham, MA, USA) at doubling dilutions with a maximum concentration of 128 mg/mL. […] Bacterial luminescence was measured at regular intervals over 72 h using a Victor X-3 luminescence plate reader with an integration time of 1 s. […]

[9] = Cytotoxicity on HEK293 human embryonic kidney cells
Experimental: as §2

human red blood cells [10] = tested on: human red blood cells
Aspergillus fumigatus = tested on: Aspergillus fumigatus; set-up: method as in PMID 4629229, PMID 9797310, PMID 19801865; settings: cited from earlier work
Microsporum gypseum = tested on: Microsporum gypseum; set-up: method as in PMID 4629229, PMID 9797310, PMID 19801865; settings: cited from earlier work
Bacillus subtilis = tested on: Bacillus subtilis; set-up: method as in PMID 4629229; settings: disk diffusion assays; cited from earlier work
Aspergillus flavus = tested on: Aspergillus flavus; set-up: method as in PMID 4629229, PMID 9797310, PMID 19801865; settings: cited from earlier work
in vitro = settings: human
Experimental: as §2

[11] = ATCC19606, A. baumanii ATCC 19606, mean of two experiments, read-out: MIC A. b
[12] = ATCC27853, P. aeruginosa ATCC 27853, mean of two experiments, read-out: MIC P. a
[13] = ATCC90028, C. albicans ATCC 90028, mean of two experiments, read-out: MIC C. a
[14] = ATCC208821, C. neoformans ATCC 208821, mean of two experiments, read-out: MIC C. n
[15] = ATCC700603, K. pneumoniae ATCC 700603, mean of two experiments, read-out: MIC K. p
[16] = ATCC25922, E. coli ATCC 25922, mean of two experiments, read-out: MIC E. c
[17] = S. aureus ATCC 43300 (MRSA), mean of two experiments

CC(O)CCC(O)/C=C/C(=O)O (stereo not drawn) [compound 1, (E)-4,7-dihydroxyoct-2-enoic acid]
cytotoxicity [1]: no cytotoxic or haemolytic activity | MIC (A. baumannii ATCC 19606; [11]): > 184 µM | MIC (P. aeruginosa ATCC 27853; [12]): > 184 µM | MIC (C. albicans ATCC 90028; [13]): > 184 µM | MIC [2, 14]: > 184 µM | MIC [3, 15]: > 184 µM | MIC (E. coli ATCC 25922; [16]): > 184 µM | MIC [4, 17]: > 184 µM

C/C=C/c1cc2c(c(=O)o1)C(=O)[C@@H](O)[C@H](C)O2 [compound 2, radicinin]
MIC (A. baumannii ATCC 19606; ATCC19606, read-out: MIC A. b): > 135 µM | antifungal activity against Elymus repens (Elymus repens): moderate antifungal activity | antifungal activity against Mycotypha microspora (Mycotypha microspora): moderate antifungal activity | MIC (P. aeruginosa ATCC 27853; ATCC27853, read-out: MIC P. a): > 135 µM | MIC (C. albicans ATCC 90028; ATCC90028, read-out: MIC C. a): > 135 µM | MIC ([2]; ATCC208821, read-out: MIC C. n): > 135 µM | MIC ([3]; ATCC700603, read-out: MIC K. p): > 135 µM | MIC (E. coli ATCC 25922; ATCC25922, read-out: MIC E. c): > 135 µM | MIC [4]: > 135 µM

C/C1=C\C[C@]2(C)C(=O)C(O)=C([C@H](C)CO)[C@H]2C/C=C(\C)[C@@H](O)CC/C(C)=C/CC1 [compound 3, terpestacin]
MIC (A. baumannii ATCC 19606; [11]): > 79 µM | MIC (P. aeruginosa ATCC 27853; [12]): > 79 µM | MIC (C. albicans ATCC 90028; [13]): > 79 µM | MIC [2, 14]: > 79 µM | MIC [3, 15]: > 79 µM | MIC (E. coli ATCC 25922; [16]): > 79 µM | MIC [4, 17]: > 79 µM

C[C@@H]1CCC(=O)CCC(=O)O[C@H](C)CC[C@H](O)/C=C/C(=O)O1 [compound 4, tetrahydropyrenophorin]
MIC (A. baumannii ATCC 19606; [11]): > 102 µM | antifungal activity against Microbotryum violaceum (Microbotryum violaceum): antifungal activity | antibacterial activity against Bacillus megaterium (Bacillus megaterium): moderate antibacterial activity | MIC (P. aeruginosa ATCC 27853; [12]): > 102 µM | antibacterial activity against E. coli (E. coli [5]): moderate antibacterial activity | MIC (C. albicans ATCC 90028; [13]): > 102 µM | MIC [2, 14]: > 102 µM | MIC [3, 15]: > 102 µM | MIC (E. coli ATCC 25922; [16]): > 102 µM | MIC [4, 17]: > 102 µM

CC1CCCCCC(=O)c2c(O)cc(O)cc2CC(=O)O1 (stereo not drawn) [compound 5, curvularin]
MIC (A. baumannii ATCC 19606; [11]): > 109 µM | antimicrobial activity against Sclerotinia sclerotiorum (Sclerotinia sclerotiorum): inactive | activity against E. coli (E. coli [6]): none of the compounds were active | antimicrobial activity against S. cerevisiae (S. cerevisiae): inactive | MIC (P. aeruginosa ATCC 27853; [12]): > 109 µM | MIC (C. albicans ATCC 90028; [13]): > 109 µM | MIC [2, 14]: > 109 µM | MIC [3, 15]: > 109 µM | antimicrobial activity against S. aureus (S. aureus): inactive | antimicrobial activity against Mycobacteria tuberculosis [7]: inactive | antimicrobial activity against B. subtilis (B. subtilis): inactive | MIC (E. coli ATCC 25922; [16]): > 109 µM | MIC [4, 17]: > 109 µM

C[C@H]1CCC/C=C/C(=O)c2c(O)cc(O)cc2CC(=O)O1 [compound 6, dehydro-curvularin]
MIC (A. baumannii ATCC 19606; ATCC19606, read-out: MIC A. b): > 110 µM | antimicrobial activity against Sclerotinia sclerotiorum (Sclerotinia sclerotiorum): inactive | antimicrobial activity against S. cerevisiae (S. cerevisiae): inactive | HC10 (human red blood cells [8]): >110 µM | MIC (P. aeruginosa ATCC 27853; ATCC27853, read-out: MIC P. a): > 110 µM | MIC (C. albicans ATCC 90028; ATCC90028, read-out: MIC C. a): > 110 µM | MIC ([2]; ATCC208821, read-out: MIC C. n): > 110 µM | MIC (M. marinum BSG101): 32 µg/mL (≈ 110 µM) | MIC ([3]; ATCC700603, read-out: MIC K. p): > 110 µM | antimicrobial activity against S. aureus (S. aureus): inactive | MIC against M. tuberculosis [7]: 40 µM (≈ 11.6 µg/mL) | antimicrobial activity against Mycobacteria tuberculosis [7]: active | antimicrobial activity against B. subtilis (B. subtilis): inactive | CC50 [9]: 1.27 µM | MIC (E. coli ATCC 25922; ATCC25922, read-out: MIC E. c): > 110 µM | MIC [4]: > 110 µM

COc1c(CC(C)O)c2c3c(CC(C)O)c(OC)c(=O)c4c(O)cc5c(c6c(cc(O)c(c1=O)c62)OCO5)c43 (stereo not drawn) [compound 7, cercosporin]
MIC (A. baumannii ATCC 19606; [11]): > 60 µM | HC10 (human red blood cells [8]): >60 µM | MIC (P. aeruginosa ATCC 27853; [12]): > 60 µM | MIC (C. albicans ATCC 90028; [13]): > 60 µM | MIC [2, 14]: > 60 µM | MIC [3, 15]: > 60 µM | haemolytic activity (human red blood cells [10]): not haemolytic | CC50 [9]: 25.3 µM | MIC (E. coli ATCC 25922; [16]): > 60 µM | activity against MRSA ([4]; MRSA): potent activity | MIC [4, 17]: ≤ 0.47 µM

C[C@H]1CCC/C=C/[C@@H]2C[C@H](O)C[C@H]2[C@H](O)/C=C/C(=O)O1 [compound 8, brefeldin A]
MIC (A. baumannii ATCC 19606; [11]): > 114 µM | activity against Aspergillus fumigatus (Aspergillus fumigatus): activity | activity against E. coli (E. coli [6]): none of the compounds were active | HC10 (human red blood cells [8]): >114 µM | MIC (P. aeruginosa ATCC 27853; [12]): > 114 µM | antifungal activity against C. albicans (C. albicans ATCC 90028): moderate antifungal activity | MIC (C. albicans ATCC 90028; [13]): 57 µM (≈ 16 µg/mL) | MIC [2, 14]: > 114 µM | MIC [3, 15]: > 114 µM | CC50 [9]: 0.89 µM | MIC (E. coli ATCC 25922; [16]): > 114 µM | MIC [4, 17]: > 114 µM | activity against Microsporum gypseum (Microsporum gypseum): activity

C[C@@H]1C[C@H]2O[C@@H]2/C=C\C=C\C(=O)Cc2c(Cl)c(O)cc(O)c2C(=O)O1 [compound 10, radicicol]
MIC (A. baumannii ATCC 19606; [11]): > 88 µM | activity against E. coli (E. coli [6]): none of the compounds were active | activity against B. subtilis (Bacillus subtilis): active | activity against Aspergillus flavus (Aspergillus flavus): activity | MIC (P. aeruginosa ATCC 27853; [12]): > 88 µM | antifungal activity against C. albicans (C. albicans ATCC 90028): moderate antifungal activity | MIC (C. albicans ATCC 90028; [13]): 44 µM (≈ 16.1 µg/mL) | MIC [2, 14]: > 88 µM | MIC (M. marinum BSG101): 64 µg/mL (≈ 175 µM) | MIC [3, 15]: > 88 µM | HC10 (human red blood cells [10]; human): >88 µM | MIC (E. coli ATCC 25922; [16]): > 88 µM | MIC [4, 17]: > 88 µM | CC50 (in vitro): > 88 µM

OC(Cn1cncn1)(Cn1cncn1)c1ccc(F)cc1F [fluconazole, reference compound]
MIC (C. albicans ATCC 90028; [13]): 0.4 µM (≈ 0.123 µg/mL) | MIC [2, 14]: 26 µM (≈ 7.96 µg/mL)

CC/C(=C(\c1ccccc1)c1ccc(OCCN(C)C)cc1)c1ccccc1 [tamoxifen, reference compound]
IC50 ([9]; HEK-293 human embryonic kidney cells): 24 µM

CN[C@H](CC(C)C)C(=O)N[C@H]1C(=O)N[C@@H](CC(N)=O)C(=O)N[C@H]2C(=O)N[C@H]3C(=O)N[C@H](C(=O)N[C@H](C(=O)O)c4cc(O)cc(O)c4-c4cc3ccc4O)[C@H](O)c3ccc(c(Cl)c3)Oc3cc2cc(c3O[C@@H]2O[C@H](CO)[C@@H](O)[C@H](O)[C@H]2O[C@H]2C[C@](C)(N)[C@H](O)[C@H](C)O2)Oc2ccc(cc2Cl)[C@H]1O [vancomycin, reference compound]
MIC [4]: 0.7 µM (≈ 1.01 µg/mL)
